Experiments:
NIH-3T3 fibroblast cells = assay: Stimulation of proliferation of NIH-3T3 cells (3H-thymidine uptake); assay type: cell-based; details: 10, 50, 100 and 500 nM preptin; FIG. 1
Description: NIH-3T3 cells may be used for various purposes including research regarding mitogenicity investigations. See, e.g., Buergisser et al. (1990). BiochemBiophys Res Comm 169(3): 832-839; Burgisser et al. (1991). J Biol. Chem 266(2): 1029-33; Yang et al. (1996). Endocrinol 137(7): 2766-2773; Geddes et al. (2001). Prot Engin 14(1): 61-65. NIH-3T3 cells were seeded in 24 well plates at a density of 3×10^4 cells/well. Cells were grown at 37° C. for 24 hours in high glucose DMEM (supplemented with 30 mM sodium hydrogen carbonate, 2 mM L-glutamine, 10^5 IU/l penicillin, 0.01% streptomycin sulphate) and 10% fetal calf serum, after which time they were serum starved for 24 hours in high DMEM and 0.2% BSA. […] This alkaline cell lysate was then neutralized with 200 μl of 0.2M HCl before 300 μl aliquots were mixed with 2 ml of Starscint scintillation fluid, and counted on a scintillation counter.
One method of measuring cell proliferation is via the incorporation of labeled nucleotides (e.g., [3H]-thymidine) into- newly synthesized DNA during cell division. For example, one of the most familiar and widely used methods for quantifying cell proliferation is the measurement of tritiated thymidine ([3H]-thymidine) incorporation. […]

INS-1E β-cells = assay: Stimulation of proliferation of INS-1E β-cells (3H-thymidine uptake); assay type: cell-based; details: general statement; test with 10 nM rat preptin in INS-1E cells, FIG. 2
Description: INS-1E cells were seeded in 24 well plates at a density of 2×10^5 cells/well. Cells were grown at 37° C. for 24 hours in modified RPMI-1640 (GIBCO R-1383 Lot108H83032; supplemented with 23.8 mM sodium hydrogen carbonate, 2 mM L-glutamine, 10 mM HEPES, 50 μM β-Mercaptoethanol, 1 mM Sodium Pyruvate, 10^5 IU/l penicillin, 0.01% streptomycin sulphate) and 10% fetal calf serum, after which time they were serum starved for 24 hours in modified RPMI-1640. The serum free medium was then replaced with 500 μl of RPMI-1640 containing the following:
0% fetal calf serum (negative control), 10% fetal calf serum (positive control), 10 nM of rat preptin (rPreptin 10 nM), 10 nM of human GLP-1 (hGLP-1 10 nM), 10 nM of human IGF-II (hIGF-II 10 nM), and cells were incubated for a further 18 hours before the addition of 5 μCi of ^3H-thymidine to each well. After a further 6 hours incubation, medium was aspirated and cells were washed twice with cold PBS, once with cold 5% TCA, and twice with cold 100% ethanol. Plates were then air-dried for 30 minutes before cells were solubilized with 400 μl of 0.5M NaOH. This alkaline c ell lysate was then neutralized with 400 μl of 0.5M HCl before 500 μl aliquots were mixed with 2 ml of Starscint scintillation fluid, and counted on a scintillation counter. […]

insulin secretion = details: Buchanan et al. (2001) Biochem. J. 360: 431-439; cited from earlier work

preptin: peptide of 34 amino acids, Formula (I); corresponds to Asp69-Leu102 of proinsulin-like growth factor II (DVSTPPTVLPDNFPRYPVGKFFQYDTWKQSTQRL; Preptin; UniProt P01344 93-126, looked up)
effect on the proliferation of NIH-3T3 fibroblast cells (tritiated thymidine uptake) (NIH-3T3 fibroblast cells): dose dependent effect
proliferation of pancreatic islet β-cells (INS-1E β-cells): stimulate proliferation
effect on insulin secretion (insulin secretion): enhance, but not initiate, insulin secretion
